Data reported in PMC10535624, “Curcuminoid Chalcones: Synthesis, Stability, and New Neuroprotective and Sonosensitising Activities” (Pharmaceuticals, 2023).

Experiments:
[1] = biological target: T1, COX-2 (Homo sapiens, UniProt P35354); assay: Effect on COX-2 activity; type: biochemical; conditions: samples 3 mM/dm^3 in DMSO, 0.02 mL; mean ± SEM, n = 3
T1 sequence (P35354 18-604): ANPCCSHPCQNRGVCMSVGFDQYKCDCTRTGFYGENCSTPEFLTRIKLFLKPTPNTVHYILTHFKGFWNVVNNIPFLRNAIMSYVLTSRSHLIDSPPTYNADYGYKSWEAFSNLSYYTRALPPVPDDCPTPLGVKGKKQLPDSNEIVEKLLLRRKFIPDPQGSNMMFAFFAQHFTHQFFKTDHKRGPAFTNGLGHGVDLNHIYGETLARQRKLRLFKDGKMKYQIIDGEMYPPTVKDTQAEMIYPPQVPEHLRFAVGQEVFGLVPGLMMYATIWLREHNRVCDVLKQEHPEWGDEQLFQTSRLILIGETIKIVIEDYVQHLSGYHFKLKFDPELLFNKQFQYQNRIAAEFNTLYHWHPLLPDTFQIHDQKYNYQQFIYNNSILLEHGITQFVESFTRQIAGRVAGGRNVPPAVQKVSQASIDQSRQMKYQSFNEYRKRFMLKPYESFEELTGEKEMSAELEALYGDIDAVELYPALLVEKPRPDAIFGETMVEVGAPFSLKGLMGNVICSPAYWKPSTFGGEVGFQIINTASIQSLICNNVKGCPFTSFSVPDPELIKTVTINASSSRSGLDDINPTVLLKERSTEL

[2] = system: glutathione peroxidase (GPx); assay: Effect on GPx activity; type: biochemical; conditions: samples 3 mM/dm^3 in DMSO; mean ± SEM, n = 3
Protocol: (§1) We decided to extend the study by measuring the compounds’ ability to inhibit glutathione reductase (GR) and GPx activities, the human cells’ main endogenous enzymatic defence systems. Therefore, we checked the influence of some curcuminoid chalcones on GR and GPx using in vitro spectroscopic methods (Table 2). Moreover, the effects of curcuminoid chalcones on CAT activity were estimated (Table 2).
(§2) The samples were dissolved in DMSO (Sigma D4540) to obtain a concentration of 3 mM/dm^3.
(§3) The analyses were performed strictly as described by Studzińska-Sroka et al..

[3] = biological target: T2, glutathione reductase (GR) (Homo sapiens, UniProt P00390); assay: Effect on GR activity; type: biochemical; conditions: samples 3 mM/dm^3 in DMSO; mean ± SEM, n = 3
T2 sequence (P00390 44-522): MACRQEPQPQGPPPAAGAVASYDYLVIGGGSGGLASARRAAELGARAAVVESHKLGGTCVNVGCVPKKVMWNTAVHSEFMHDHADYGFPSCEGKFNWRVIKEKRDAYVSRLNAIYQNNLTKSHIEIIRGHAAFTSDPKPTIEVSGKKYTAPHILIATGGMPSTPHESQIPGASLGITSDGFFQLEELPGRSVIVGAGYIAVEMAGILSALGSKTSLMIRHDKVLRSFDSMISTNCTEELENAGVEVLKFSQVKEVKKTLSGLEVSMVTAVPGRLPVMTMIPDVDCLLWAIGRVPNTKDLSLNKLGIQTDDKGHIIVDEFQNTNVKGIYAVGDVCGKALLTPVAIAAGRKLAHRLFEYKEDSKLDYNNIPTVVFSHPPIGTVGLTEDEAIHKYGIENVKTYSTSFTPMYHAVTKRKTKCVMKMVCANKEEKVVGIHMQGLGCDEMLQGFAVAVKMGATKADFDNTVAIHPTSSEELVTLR
Protocol: as §1, §2, §3

[4] = biological target: T3, catalase (CAT) (Aspergillus niger, UniProt P55303); assay: Effect on CAT activity; type: biochemical; conditions: samples 3 mM/dm^3 in DMSO, 0.01 mL; mean ± SEM, n = 3
T3 construct: purchased Sigma C3515
T3 sequence (P55303 whole entry): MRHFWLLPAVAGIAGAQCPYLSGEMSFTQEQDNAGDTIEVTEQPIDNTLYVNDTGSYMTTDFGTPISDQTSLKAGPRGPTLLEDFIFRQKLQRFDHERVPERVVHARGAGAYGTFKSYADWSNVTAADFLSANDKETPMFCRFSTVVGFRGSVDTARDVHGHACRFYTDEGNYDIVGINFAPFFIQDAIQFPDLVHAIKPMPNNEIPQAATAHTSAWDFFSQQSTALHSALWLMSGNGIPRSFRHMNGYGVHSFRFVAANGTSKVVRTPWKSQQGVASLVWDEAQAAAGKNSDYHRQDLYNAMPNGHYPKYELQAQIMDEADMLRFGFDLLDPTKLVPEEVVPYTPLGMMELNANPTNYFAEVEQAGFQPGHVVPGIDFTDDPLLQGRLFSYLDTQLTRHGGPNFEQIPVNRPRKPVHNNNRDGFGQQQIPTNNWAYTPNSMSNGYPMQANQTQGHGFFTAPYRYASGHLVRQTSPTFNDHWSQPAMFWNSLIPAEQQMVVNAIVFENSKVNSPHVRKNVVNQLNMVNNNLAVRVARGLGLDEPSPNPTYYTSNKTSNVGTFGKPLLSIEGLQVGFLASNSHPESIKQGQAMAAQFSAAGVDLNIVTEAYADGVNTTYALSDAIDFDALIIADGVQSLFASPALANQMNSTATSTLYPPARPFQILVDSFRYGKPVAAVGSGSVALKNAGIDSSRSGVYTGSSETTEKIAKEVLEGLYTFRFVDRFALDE
Protocol: as §2
The method used by Watanabe et al. was used with the following modifications. The reaction mixture was composed of 0.02 mL of EDTA solution (56.5 mM), 0.01 mL of ^the sample, 0.02 mL of 3% H2O2 solution (Sigma H1009), and 0.02 mL of catalase solution (4000-fold diluted, Sigma C3515) (all reagents except the tested sample were diluted in TRIS buffer, pH 7.0, 1 mol/dm^3). The volume was completed to 0.31 mL by the same buffer solution. In a blank sample, DMSO (Sigma D4540) replaced the tested sample. The background of the sample was measured in a mixture composed of 0.01 mL of the sample completed to 0.31 mL by the buffer. The absorbance was read at 240 nm directly after the mixing and after 5 min of incubation (room temperature). The decreased absorbance (depletion of H2O2) in the tested and blank samples was compared. The calibration curve was produced using eleven H2O2 solutions (0.5693–5.693 mM/dm^3). The results are expressed in % inhibition and as H2O2 depletion (mmol of depleted H2O2/dm^3 min).

[5] = biological target: AChE (Homo sapiens, UniProt P22303); assay: Effect on AChE activity (modified Ellman's method); type: biochemical; conditions: samples 3 mM/dm^3 in DMSO, 0.035 mL; mean ± SEM, n = 3
Chain of AChE (P22303 32-614): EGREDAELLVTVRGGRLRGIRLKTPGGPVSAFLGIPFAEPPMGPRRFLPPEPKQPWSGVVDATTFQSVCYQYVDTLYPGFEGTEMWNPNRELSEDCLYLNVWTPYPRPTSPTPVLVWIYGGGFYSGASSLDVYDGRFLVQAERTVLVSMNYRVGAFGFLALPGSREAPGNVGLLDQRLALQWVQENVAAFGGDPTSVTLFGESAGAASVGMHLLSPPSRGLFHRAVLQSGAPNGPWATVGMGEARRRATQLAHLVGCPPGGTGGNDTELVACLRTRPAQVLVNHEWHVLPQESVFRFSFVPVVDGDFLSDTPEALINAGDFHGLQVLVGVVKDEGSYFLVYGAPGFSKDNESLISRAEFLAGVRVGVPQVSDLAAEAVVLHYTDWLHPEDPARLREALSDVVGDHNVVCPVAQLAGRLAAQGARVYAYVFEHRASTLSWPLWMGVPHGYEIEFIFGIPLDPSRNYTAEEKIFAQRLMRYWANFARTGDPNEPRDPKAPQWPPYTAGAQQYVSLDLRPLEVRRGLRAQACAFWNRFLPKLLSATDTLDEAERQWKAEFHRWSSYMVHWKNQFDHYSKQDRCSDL
Text: Neurodegenerative diseases are associated with the progressive damage of neurons. During the development of these diseases, there is a loss of nerve cells and a deficiency of […], serotonin, and norepinephrine levels. The ability to inhibit acetyl- (AChE) and butyrylcholinesterase (BChE) activities is seen, among others, in organophosphorus compounds, carbamate insecticides, phenoxyacetic pesticides, and hydrogen peroxide, as well as aliphatic ketones with the carbons C4–C9, e.g., 2,5-hexandione. AChE and BChE show differences in their susceptibility to inhibitors, behaviour in situations involving excess substrate, or substrate binding specificity. Unlike, other esterases, both enzymes hydrolyse choline esters at very high speeds. Thus, in our work, the modified Elman’s method was used to investigate the anti-AChE and anti-BChE effects of curcuminoid chalcone.
as §2
The analysis was performed strictly as described by Studzińska-Sroka et al., except that the volume of the tested samples added to the reaction mixture was 0.035 mL.

[6] = biological target: BChE (Homo sapiens, UniProt P06276); type: biochemical; conditions: samples 3 mM/dm^3 in DMSO, 0.035 mL; mean ± SEM, n = 3
Chain of BChE (P06276 29-602, species assumed): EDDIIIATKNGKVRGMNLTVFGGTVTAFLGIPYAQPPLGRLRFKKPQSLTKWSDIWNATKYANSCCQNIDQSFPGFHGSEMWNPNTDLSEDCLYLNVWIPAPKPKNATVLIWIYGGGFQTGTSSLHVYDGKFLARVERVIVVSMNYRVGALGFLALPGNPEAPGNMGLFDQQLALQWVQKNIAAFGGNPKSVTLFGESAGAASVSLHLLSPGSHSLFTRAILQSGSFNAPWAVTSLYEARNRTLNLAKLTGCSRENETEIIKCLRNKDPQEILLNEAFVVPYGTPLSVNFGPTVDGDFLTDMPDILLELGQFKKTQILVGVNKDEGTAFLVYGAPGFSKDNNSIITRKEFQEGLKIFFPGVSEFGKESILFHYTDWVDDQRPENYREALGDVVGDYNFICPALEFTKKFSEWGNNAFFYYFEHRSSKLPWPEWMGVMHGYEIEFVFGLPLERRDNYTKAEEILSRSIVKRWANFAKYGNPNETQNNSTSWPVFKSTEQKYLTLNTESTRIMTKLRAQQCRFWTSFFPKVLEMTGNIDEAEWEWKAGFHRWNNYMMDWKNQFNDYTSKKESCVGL

[7] = Hydroxyl radical antioxidant capacity (HORAC); conditions: samples 1 mg/mL DMSO; mean ± SEM, n = 3
[8] = system: SCC-25 cells; assay: Sonodynamic cytotoxicity, MTT test; type: cell-based, human; conditions: 40 µM; for Reduction of viability of SCC-25 cells, compound combined with US: 8 h, then US 3 min, 3 MHz, 0.8 W/cm^2, MTT 6 h later, compared to untreated cells
[9] = system: FaDu cells; assay: Sonodynamic cytotoxicity, MTT test; type: cell-based, human; conditions: 40 µM, 8 h, then US 3 min, 3 MHz, 0.8 W/cm^2; MTT 6 h later; compared to untreated cells
Protocol: The cytotoxic effect and sonosensitising properties of selected synthesised chalcone derivatives were evaluated on human SCC-25 tongue and FaDu throat cancer cell lines using the MTT test (Figure 5 and Figure 6).
SCC-25 and FaDu human squamous cell carcinoma cell lines were purchased from the American Type Culture Collection (ATCC). The cells were cultivated in an incubator under optimal culture conditions (temperature: 37 °C; humidity: 95%; carbon dioxide content: 5%). The SCC-25 cell line was cultured in phenol red-free DMEM:F-12 medium complemented with 10% FBS, 2.5 mM L-glutamine, penicillin (100 U/mL), and streptomycin (0.1 mg/mL). The FaDu cells were maintained in phenol red-free Eagle’s Minimum Essential Medium (EMEM) supplemented with 10% fetal bovine serum (FBS), 2.5 mM L-glutamine, penicillin (100 U/mL), and streptomycin (0.1 mg/mL). For the experiments, confluent stock cultures were harvested using the trypsin–EDTA solution and seeded in 35-mm-diameter Petri plates at a density of 1 × 10^6. They were allowed to attach overnight, and the tested compounds were then added at a concentration of 40 µM. Control cells were maintained under the same conditions with 0.1% DMSO. […] The absorbance was measured using an Elx-800 plate reader (BioTek, Bad Friedrichshall, Germany) at 570 nm (reference wavelength 650 nm).

[10] = temperatures below 30 °C ref 43; cited from earlier work

SMILES | Equivalent Concentration of Acetylsalicylic Acid (COX-2) [1] | GPx Inhibition (%) [2] | GPx activity (NADPH consumption rate) [2] | GR Inhibition (%) [3] | GR activity (NADPH consumption rate) [3] | CAT Inhibition (%) [4] | CAT Inhibition of the H2O2 Depletion [4] | AChE % (inhibition) [5] | AChE, Equivalent Concentration of Reference Compound Magniflorine [5] | AChE, Equivalent Concentration of Reference Compound Rivastigmine [5] | BChE % (inhibition) [6] | BChE, Equivalent Concentration of Reference Compound Magniflorine [6] | BChE, Equivalent Concentration of Reference Compound Rivastigmine [6] | HORAC, Gallic Acid Equivalents [7] | Reduction of viability of SCC-25 cells, compound combined with US [8] | Inhibition of viability of FaDu cells, compound combined with US [9] | pH of greatest stability of water solutions [10] | Reduction of viability of SCC-25 cells, compound alone ([8]; MTT, compared to control) | COX-2 Inhibition (%) [1]
COc1ccc(/C=C/C(=O)c2ccccc2)cc1O [Compound 7, E-3-(3-hydroxy-4-methoxyphenyl)-1-phenylprop-2-en-1-one] | 7.7 ± 0.1 mg/mL | 32.4 ± 2.8% | 64.4 ± 5.5 nmol Depleted NADPH/min | 41.8 ± 3.1% | 1570 ± 116 nmol Depleted NADPH/min | 88.1 ± 4.0% | 0.22 ± 0.01 mm/dm^3/min | 89.8 ± 5.8% | 0.34 ± 0.01 µg/mL | 0.51 ± 0.03 µg/mL | 94.4 ± 4.1% | 0.37 ± 0.02 µg/mL | 0.27 ± 0.01 µg/mL | 11.5 ± 1.3 µg/mL |  |  |  |  | 
CC(C)Cc1ccc(C(C)C(=O)O)cc1 (centres unmarked) [Compound 4, ibuprofen, reference compound] |  |  |  | 19.9 ± 1.1% | 747 ± 41 nmol Depleted NADPH/min |  |  |  |  |  |  |  |  | 35.7 ± 4.2 µg/mL | no significant difference | no significant difference | 5–7 |  | 
COc1cc(/C=C/C(=O)c2ccccc2)ccc1O [Compound 1, 3-(4-hydroxy-3-methoxyphenyl)-1-phenylprop-2-en-1-one] | 6.1 ± 0.1 mg/mL | 30.3 ± 3.6% | 60.3 ± 7.1 nmol Depleted NADPH/min | 7.6 ± 2.4% | 286 ± 90 nmol Depleted NADPH/min | 78.6 ± 2.8% | 0.26 ± 0.01 mm/dm^3/min | 80.5 ± 8.2% | 0.31 ± 0.03 µg/mL | 0.46 ± 0.05 µg/mL | 78.0 ± 4.6% | 0.30 ± 0.02 µg/mL | 0.23 ± 0.01 µg/mL | 18.7 ± 3.8 µg/mL | ~ 40% | significantly reduced viability |  | no significant difference | 
O=C(/C=C/c1ccccc1)c1ccccc1 [Compound 5] |  | did not inhibit and - |  | 29.1 ± 4.4% | 1093 ± 165 nmol Depleted NADPH/min | 12.5 ±2.4% | 0.03 ± 0.01 mm/dm^3/min | 65.7 ± 4.7% | 0.25 ± 0.02 µg/mL | 0.37 ± 0.03 µg/mL | 58.1 ± 3.4% | 0.23 ± 0.01 µg/mL | 0.17 ± 0.01 µg/mL | 6.1 ± 2.5 µg/mL |  |  |  |  | -
